Results taken from ChEMBL document CHEMBL1201862, “PubChem BioAssay data set” (2004).
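Where inhibition never reached the appropriate level, the endpoint shown equals the highest concentration tested. Otherwise, values were interpolated linearly from a five-concentration, 48-hour dose response in 96-well plates. GI50 = concentration required for 50% inhibition of growth.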 The source made the active and inactive calls. Rule as the data show it: active = GI50 up to about 1.1 µM and inactive = higher.

Columns and labels:
Assay in all cases: DTP human tumour cell line panel, 48 h
A549 = system: A549
HCC 2998 = system: HCC 2998
UACC-257 = system: UACC-257
MOLT-4 = system: MOLT-4
786-0 = system: 786-0
UACC-62 = system: UACC-62
SK-MEL-5 = system: SK-MEL-5
SN12C = system: SN12C
Malme-3M = system: Malme-3M
NCI/ADR-RES = system: NCI/ADR-RES
SF-268 = system: SF-268
RPMI-8226 = system: RPMI-8226
SNB-75 = system: SNB-75
OVCAR-4 = system: OVCAR-4
SK-MEL-28 = system: SK-MEL-28
T47D = system: T47D
TK-10 = system: TK-10
PC-3 = system: PC-3
HCT-15 = system: HCT-15
OVCAR-5 = system: OVCAR-5
OVCAR-3 = system: OVCAR-3
Hs-578T = system: Hs-578T
COLO 205 = system: COLO 205
MCF7 = system: MCF7
SK-MEL-2 = system: SK-MEL-2
LOX IMVI = system: LOX IMVI
OVCAR-8 = system: OVCAR-8
SNB-19 = system: SNB-19
M14 = system: M14
KM12 = system: KM12
NCI-H522 = system: NCI-H522
RXF 393 = system: RXF 393
NCI-H460 = system: NCI-H460
UO-31 = system: UO-31
ACHN = system: ACHN
K562 = system: K562
HCT-116 = system: HCT-116
SR = system: SR
A498 = system: A498
SF-295 = system: SF-295
SF-539 = system: SF-539
HT-29 = system: HT-29
HL-60 = system: HL-60
EKVX = system: EKVX
IGROV-1 = system: IGROV-1
DU-145 = system: DU-145
HOP-62 = system: HOP-62
CCRF-CEM = system: CCRF-CEM
U-251 = system: U-251
BT-549 = system: BT-549
NCI-H23 = system: NCI-H23
MDA-N = system: MDA-N
SW-620 = system: SW-620
CAKI-1 = system: CAKI-1
HOP-92 = system: HOP-92
MDA-MB-435 = system: MDA-MB-435
SK-OV-3 = system: SK-OV-3
NCI-H226 = system: NCI-H226
MDA-MB-231 = system: MDA-MB-231

Measured: GI50

COc1ccc(C2c3cc4c(cc3OC(N3CCOCC3)C2C)OCO4)cc1 (configuration not stated)
inactive: A549 23.2 µM | HCC 2998 22.4 µM | UACC-257 21.9 µM | MOLT-4 12 µM | 786-0 23.8 µM | UACC-62 27.6 µM | SK-MEL-5 22.6 µM | SN12C 37.3 µM | Malme-3M 7.38 µM | NCI/ADR-RES 23.2 µM | SF-268 27.9 µM | RPMI-8226 15.3 µM | SNB-75 35.9 µM | OVCAR-4 37.8 µM | SK-MEL-28 28.6 µM | T47D 7.96 µM | TK-10 29.1 µM | PC-3 22.3 µM | OVCAR-5 34.8 µM | OVCAR-3 20.8 µM | Hs-578T 15.3 µM | COLO 205 27.2 µM | MCF7 26.1 µM | SK-MEL-2 22.4 µM | LOX IMVI 24.1 µM | OVCAR-8 34.7 µM | SNB-19 27.9 µM | M14 26.9 µM | KM12 23.4 µM | NCI-H522 30 µM | RXF 393 19.1 µM | NCI-H460 26.1 µM | UO-31 19.9 µM | ACHN 21.4 µM | K562 12.8 µM | HCT-116 20.2 µM | SR 15.1 µM | A498 6.03 µM | SF-295 15.1 µM | SF-539 21.4 µM | HT-29 25.8 µM | HL-60 21.1 µM | EKVX 23.9 µM | IGROV-1 30.3 µM | DU-145 27.7 µM | HOP-62 22.5 µM | CCRF-CEM 20.3 µM | U-251 18 µM | BT-549 20.3 µM | NCI-H23 39 µM | MDA-N 16.9 µM | SW-620 29.1 µM | CAKI-1 19.3 µM | HOP-92 4.14 µM | MDA-MB-435 20.7 µM
24.5 µM: HCT-15

O=C(NNS(=O)(=O)c1ccc(Br)cc1)c1ccc(Cl)cc1NC(=O)C12CC3CC(CC(C3)C1)C2
15.6 µM: HCT-15
inactive: A549 8.15 µM | UACC-257 13.5 µM | MOLT-4 6.62 µM | 786-0 19.5 µM | UACC-62 12.4 µM | SK-MEL-5 10.9 µM | SN12C 18.9 µM | Malme-3M 14.8 µM | SK-OV-3 16.4 µM | NCI/ADR-RES 14.3 µM | SF-268 11.4 µM | RPMI-8226 4.49 µM | SNB-75 14.2 µM | OVCAR-4 10.6 µM | T47D 15.2 µM | TK-10 12.5 µM | PC-3 15.9 µM | OVCAR-5 18.2 µM | OVCAR-3 11.6 µM | Hs-578T 17.4 µM | COLO 205 12 µM | MCF7 11.7 µM | SK-MEL-2 11.8 µM | LOX IMVI 14.1 µM | OVCAR-8 13.6 µM | SNB-19 15.4 µM | M14 15 µM | KM12 16.4 µM | NCI-H522 12.4 µM | RXF 393 15.7 µM | NCI-H460 8.34 µM | UO-31 11.7 µM | ACHN 16 µM | K562 6.34 µM | HCT-116 21.2 µM | SR 12.4 µM | A498 15.2 µM | SF-295 13.9 µM | NCI-H226 16.1 µM | SF-539 17.3 µM | HT-29 11.8 µM | HL-60 18.9 µM | EKVX 11.3 µM | IGROV-1 11.9 µM | DU-145 14.5 µM | HOP-62 19.8 µM | CCRF-CEM 14.6 µM | U-251 10.8 µM | BT-549 16.7 µM | NCI-H23 14.2 µM | MDA-N 14.2 µM | SW-620 19.5 µM | CAKI-1 17 µM | HOP-92 12.2 µM | MDA-MB-435 12.4 µM

O/N=N/c1ccc([SH2]c2ccc3ccccc3c2)cn1
17.1 µM: HCT-15
active: Malme-3M 0.955 µM | RXF 393 < 0.01 µM
inactive: A549 33 µM | HCC 2998 13.4 µM | UACC-257 36.1 µM | MOLT-4 1.62 µM | 786-0 31.3 µM | UACC-62 27.6 µM | SK-MEL-5 16.3 µM | SN12C 20.5 µM | SK-OV-3 43.9 µM | NCI/ADR-RES 19.1 µM | MDA-MB-231 30.1 µM | SF-268 22.3 µM | SNB-75 20.2 µM | OVCAR-4 > 100 µM | SK-MEL-28 32.7 µM | T47D 20.6 µM | TK-10 28.6 µM | PC-3 8.85 µM | OVCAR-5 32.7 µM | OVCAR-3 43.8 µM | Hs-578T 43 µM | COLO 205 20.2 µM | MCF7 17.9 µM | SK-MEL-2 15.4 µM | OVCAR-8 19.1 µM | SNB-19 40.2 µM | M14 19.3 µM | KM12 41.4 µM | NCI-H522 17.5 µM | NCI-H460 15.4 µM | UO-31 24.6 µM | ACHN 18.6 µM | K562 16.8 µM | HCT-116 15 µM | SR 21.8 µM | A498 57.9 µM | SF-295 25.8 µM | NCI-H226 31.6 µM | SF-539 41.9 µM | HT-29 34 µM | HL-60 3.97 µM | EKVX 23.6 µM | IGROV-1 32.7 µM | DU-145 17.1 µM | HOP-62 15.1 µM | CCRF-CEM 3.04 µM | U-251 19.3 µM | BT-549 23 µM | NCI-H23 12.2 µM | MDA-N 31.4 µM | SW-620 28.3 µM | CAKI-1 17.7 µM
